Source: PubChem BioAssay AID2305 (GlaxoSmithKline (GSK), 2010)
Where “and” joins values, the source holds several entries; their conditions need not be identical. Identical values can stand only once.

tested on: P. falciparum 3D7 growth, pLDH absorbance; assay: blood-stage malaria parasite growth potency – strain 3D7, dose response (AID 2305)

In order of rising IC50:
1. COc1ccccc1N=C1SC(=Cc2cn(CC(=O)N3CCCc4ccccc43)c3ccccc23)C(=O)N1C1CCCCC1  30 nM
2. COc1ccc(C2CC(=O)C3=C(C2)NC(C)=C(C(=O)OC(C)C)C3c2ccccc2F)cc1OC (centres undefined)  60 nM
3. Cc1[nH]c(C)c(-c2ccc(CCc3ccc(N)cc3)cc2)c(=O)c1Cl  100 nM
4. COc1ccc(Nc2ncc(C#N)c(Nc3ccccc3C(N)=O)n2)cc1N1CCN(C)CC1  140 nM
5. COc1ccc2nccc(N3CCCN(CCNCc4ccc5c(n4)NC(=O)CS5)CC3)c2n1  150 nM
6. COc1ccc2nccc([C@@H](O)CN3CCC(NCCOc4cccc(C(F)(F)F)c4)CC3)c2c1  160 nM
7. CC(C)NCc1cccc(-c2ccc(-c3nc4ccc(C(F)(F)F)cc4[nH]3)cc2)c1  190 nM
8. CC[C@H]1CN2CC[C@H]1C[C@H]2[C@H](O)c1cc(-c2ccccc2C)nc2ccc(OC)cc12  200 nM
9. CCc1ccc(Cc2cnc3nc(N)nc(N)c3c2C)cc1  200 nM
10. COc1cc(CNCCCCCCNCc2cc(OC)c(OC)c3ccccc23)c2ccccc2c1OC  230 nM
11. CS(=O)(=O)c1ccc(CCNCc2ccc(-c3ccc(CNC4CCN(Cc5ccccc5)CC4)cc3)nc2)cc1  250 nM
12. CN1CC=C(c2c[nH]c3ccc(Oc4ccccc4)cc23)CC1  250 nM
13. COc1ccc2nccc([C@@H](O)CN3CCC(NC(=O)C(c4ccccc4C)N4CCC(Cc5ccccc5)CC4)CC3)c2c1 (some centres undefined)  260 nM
14. NC(N)=Nc1ccc(CCc2ccc(N=C(N)N)cc2)cc1  290 nM
15. CCCC(CNCc1ccc(Cl)c(C(F)(F)F)c1)CNc1nc2ccncc2[nH]1 (centres undefined)  290 nM
16. Cc1nnsc1C(=O)Nc1cccc(-c2ccc(-c3nc4ccc(C(F)(F)F)cc4[nH]3)cc2)c1  310 nM
17. Cc1cc(N2CCNCC2)c2cc(NC(=O)Nc3ccc(Cl)c(Cl)c3)ccc2n1  310 nM
18. Cc1noc(C)c1-c1cccc(CNCc2cccc(-c3cccc(-c4nc5c(C)cccc5[nH]4)c3)c2)c1  370 nM
19. CCC(=O)OC(CCN(CC)CC)(c1ccccc1)c1ccccc1  370 nM
20. Oc1ccc(Cl)cc1CN1CCC2(CCCN(CC3CCC3)C2)C1 (centres undefined)  370 nM
21. Cc1ccc(-n2nc3ccc(NC(=O)c4ccc([N+](=O)[O-])o4)cc3n2)cc1C  400 nM
22. Cc1ccc(Cn2c(N3CCC(C(=O)NCc4ccccn4)CC3)nc3ccccc32)cc1  410 nM
23. COc1ccccc1/C=C/C(=O)N(C)C1CCN(CCCCCNC(=O)/C=C/c2ccc(Cl)c(Cl)c2)CC1  440 nM
24. CC(C)CCC[C@@H]([C@@H](CC1CCCCC1)C(=O)N[C@@H](CCCCNC(=O)OCc1ccccc1)C(=O)Nc1nccs1)N(O)C=O  460 nM
25. CC(C)Cc1cn(-c2nc(-c3nc4ccccc4[nH]3)cs2)c2cc(Cl)ccc12  480 nM
26. COc1ccc(C(=O)CCc2ccc(O)cc2)cc1  480 nM
27. NC1CCCN(Cc2cccc(-c3ccc(-c4nc5ccc(C(F)(F)F)cc5[nH]4)cc3)c2)C1 (centres undefined)  520 nM
28. Cc1cccc2[nH]c(-c3cccc(-c4cccc(CNCc5cccc(N)c5)c4)c3)nc12  540 nM
29. CCCCOc1ccccc1C(=O)NCc1csc(-c2ccccc2)n1  560 nM
30. CCCCNc1cc(NCCCC)c2c(n1)[nH]c1ccccc12  570 nM
31. Cc1cnc(C(=O)Nc2cccc(-c3cccc(-c4nc5c(C)cccc5[nH]4)c3)c2)cn1  580 nM
32. Cc1cc(-c2ccc3c(c2)CCN(CCC2CCC(NC(=O)/C=C/c4cccc(Cl)c4)CC2)CC3)on1 (centres undefined)  590 nM
33. Cc1cc(NN=CC=Cc2ccccc2)c2ccc(F)cc2n1  590 nM
34. O=S(=O)(c1c(Cl)cc(Cl)cc1Cl)N1CCCCC(c2ccc(F)c(F)c2)=N1  590 nM
35. Cc1ccoc1C(=O)Nc1cccc(-c2cccc(-c3nc4ccc(C(F)(F)F)cc4[nH]3)c2)c1  610 nM
36. O=C(Nc1ccc2c(c1)CCNCC2)Nc1ccc2ccccc2c1  620 nM
37. Cc1cccc2[nH]c(-c3ccc(-c4cccc(C(=O)N5CCCCC5C(C)O)c4)s3)nc12 (centres undefined)  640 nM
38. Cc1cc(NC2CCN(CC3CCCCC3)CC2)nc(Nc2ccccc2Cl)n1  640 nM
39. O=C(Cc1cnc[nH]1)Nc1cccc(-c2ccc(-c3nc4ccc(F)cc4[nH]3)s2)c1  660 nM
40. Cc1cc(-c2ccc(CNC3Cc4ccccc4C3)cc2)ccc1S(=O)(=O)NCCN1CCCC1  700 nM
41. NC(=O)COc1c(C2CCN(CCCCNC(=O)c3ccc(-c4ccc(Cl)cc4)c(O)c3)CC2)ccc2c1CCCC2  710 nM
42. COc1ccc(-c2ccc(CNC(=O)c3ccc(Cl)cc3)c(F)c2)cc1CN1CCCN(C)CC1  710 nM
43. O=C(C1CCN(c2nnnn2-c2ccccc2)CC1)N1CCc2ccccc2C1  710 nM
44. COc1cc(CC2c3cc(O)c(Cl)cc3CCN2C)c(OC)cc1C (centres undefined)  710 nM
45. CN1CCN(c2ccc(Nc3ncc([N+](=O)[O-])c(Nc4ccccc4O)n3)cc2)CC1  720 nM
46. Cc1cccc2[nH]c(-c3cccc(-c4ccc(NC(=O)N[C@@H]5C[C@H]5c5ccccc5)cc4)c3)nc12  720 nM
47. CN(C)CCOc1cc(NC(=O)Nc2cccc([N+](=O)[O-])c2)ccc1I  740 nM
48. Nc1ccc2nc(C=Cc3ccccc3)[nH]c2c1  750 nM
49. CC1CCc2c(C(=O)Nc3c(F)cc(F)cc3Br)csc2C1 (centres undefined)  750 nM
50. CC(C)(CN)c1nc(-c2ccc(Cl)c(O)c2)c(-c2ccncc2)[nH]1  760 nM
51. COc1cccc(C(=O)[C@H]2C[C@@H]2CN(C)CCC(O)c2ccc(Cl)c(Cl)c2)c1 (some centres undefined)  760 nM
52. Fc1ccc(Nc2ccnc3cc(-c4ccc(CN5CCOCC5)o4)ccc23)c(Cl)c1  760 nM
53. Cc1cc(C(=O)Nc2ccc3c(c2)CCN3C2CCN(Cc3ccc(O)cc3)C2)no1 (centres undefined)  770 nM
54. N#Cc1ccc(/C=C/C(=O)NCCCCCN2CCN(C(=O)Nc3ccc(Cl)c(C(F)(F)F)c3)CC2)cc1  780 nM
55. Cc1cccc2[nH]c(-c3ccc(-c4cccc(NC(=O)NCc5ccccc5)c4)cc3)nc12  780 nM
56. CC(C)COc1cc(C(=O)Nc2cnc3ccccc3c2)ccc1[N+](=O)[O-]  780 nM
57. CC(C)CCn1c(Sc2ccc(C#N)c([N+](=O)[O-])c2)nnc1-c1ccc(N(C)C)cc1  790 nM
58. CCOc1cc(NCCSCc2nc[nH]c2C)nc2ccccc12  790 nM
59. CC(C)CCCC(C)(C)NC[C@@H](O)[C@H](Cc1ccccc1)NC(=O)c1cccc(CCC2CC2)c1  800 nM
60. COc1ccc(-c2ccc(NC(=O)c3cccc(C#N)c3)cc2)cc1CN1CCC(O)CC1  820 nM
61. CC1CN(S(=O)(=O)c2ccc(NC(=O)c3cc(-c4ccccc4O)n[nH]3)cc2)CC(C)O1 (centres undefined)  830 nM
62. O=C(NC1CCN(Cc2ccccc2)CC1)c1ccc(-c2nc3cc(F)c(F)cc3[nH]2)s1  830 nM
63. Cc1cc(N[C@@H](CC(C)C)C(=O)NCc2cccc(F)c2)nc(NCC2CCCCC2)n1  830 nM
64. Cc1[nH]c2ccccc2c(=O)c1Br  840 nM
65. Cc1ccc(N)cc1-c1nc(NC2CC(C)(C)NC(C)(C)C2)nc2c1ccc(=O)n2-c1c(F)cccc1F  840 nM
66. Cc1ccc(CNC(=O)c2cc3c(=O)n4cccc(C)c4nc3n(CCN3CCOCC3)c2=N)cc1  850 nM
67. O=C(Nc1ccc(F)c([N+](=O)[O-])c1)Nc1cc(C(F)(F)F)ccc1Cl  860 nM
68. CS(=O)(=O)c1ccc(CCNCc2ccc(-c3ccc(CN(C(=O)C4CC(=O)c5ccccc54)C4Cc5ccccc5C4)cc3)nc2)cc1 (centres undefined)  860 nM
69. Cc1nc(N)nc(N)c1Oc1cccc(Cl)c1  870 nM
70. Cc1nnsc1C(=O)Nc1cccc(-c2ccc(-c3nc4ccccc4[nH]3)cc2)c1  870 nM
71. CCCCOc1ccc(C(O)C(CN2CCCCC2)c2ccccc2)cc1 (centres undefined)  890 nM
72. O=C(N1CCN(c2cccc(C(F)(F)F)c2)CC1)C(Cl)(Cl)Cl  890 nM
73. CCCCCCNC(=O)C1Cc2c([nH]c3cc(Cl)ccc23)C2(CCN(Cc3ccccc3)CC2)N1 (centres undefined)  900 nM
74. O=C(Nc1ccc(SC(F)(F)F)cc1)Nc1ccc(Cl)c(Cl)c1  910 nM
75. CC(C)CNCc1ccc(-c2cccc(CNc3ccc4ncccc4c3)c2)cc1  910 nM
76. CC(C)CNCc1ccc(-c2ccc(CN(CCCN3CCN(C)CC3)C(=O)/C=C/c3ccccc3)cc2)cc1  920 nM
77. COCCCNC(=O)c1ccc(O)c(-c2cc(Cl)cc(Cl)c2)c1  920 nM
78. CC1(C)Cc2c([nH]c3ccccc23)C(CCCCCCCCC2=NC(C)(C)Cc3c2[nH]c2ccccc32)=N1  930 nM
79. CCCCCCCN1CCC(CCNc2ccnc3ccc(OC)cc23)CC1  950 nM
80. O=c1ccc2ncc(Cl)c3c2n1CC3CN1CCC(NCc2cc3c(cn2)OCCO3)CC1 (centres undefined)  960 nM
81. CON=Cc1sc(CNCCCNc2cc(=O)c3ccccc3[nH]2)c(C)c1Br  960 nM
82. Cc1cc(F)ccc1Nc1nc(N(C)c2ccccc2)c2cccc(O)c2n1  960 nM
83. CC(C)CCN1CCC(Oc2ccc(NC(=O)c3ccc4ncccc4c3)cc2Cl)C1 (centres undefined)  970 nM
84. Cc1ccc(CNC(=O)[C@H](CCCN)Nc2nc(NCC3CCCCC3)ncc2C)cc1  990 nM
85. N#Cc1ccc(C(=O)Nc2ccc(-c3cccc(CN4CCCC4)c3)cc2)cc1  1000 nM
86. CCOC(=O)c1c(CN(CC)CC)n(-c2ccccc2)c2cc(Br)c(O)cc12  1000 nM
87. Cn1cc(C2CCN(CCCCNC(=O)c3sc(-c4ccc(C(F)(F)F)cc4)nc3CO)CC2)c2ccccc21  1060 nM
88. Oc1ccc(CCNc2nc(NCc3ccccc3-c3ccc(F)cc3)nc(N3CCNCC3)n2)cc1  1070 nM
89. CC(=O)Nc1ccc(CN2CCC(CNC(=O)c3cc(-c4cccc(Cl)c4)cs3)C2)cc1 (centres undefined)  1120 nM
90. CCCCC1(NC(=O)[C@@H](Nc2ccc(C#N)c3ccccc23)C2CCCCC2)CCCCC1  1120 nM
91. NC1CCN(c2cnn(Cc3cccc(NC(=O)Nc4ccc(-c5ccccc5)cc4)c3)c(=O)c2Cl)CC1  1140 nM
92. CN1CCC[C@H]1COc1ccc(CN2CC[C@H](NC(=O)c3ccc(Cl)c(Cl)c3)C2)cc1Cl  1150 nM
93. Cc1ccc(-c2ccn(Cc3cccc(OCc4ccccc4)c3)n2)cn1 (tested in a mixture with another compound)  1180 nM
94. CN(CCCN(C)c1cc(NC(=O)c2ccc(F)cc2)ccn1)Cc1cccc(O)c1  1210 nM
95. N#Cc1cccc(C(=O)Nc2cccc(-c3ccc(CN4CCC(O)CC4)cc3)c2)c1  1300 nM
96. Cc1ccc2nc(-c3cc(-c4ccc(OCc5ccccc5)cc4)cnc3N)[nH]c2c1  1680 nM
97. O=c1cc(NCCC2CC=CCN2Cc2ccc(Cl)c(Cl)c2)[nH]c2ccccc12 (centres undefined)  1730 nM
98. O=C(Nc1cccc(C(F)(F)F)c1)Nc1cc(F)c(F)cc1Cl  1960 nM

With `COc1cc(/C=C/C(=O)NC2CCC(CN3CCC(c4c[nH]c5ccccc45)CC3)CC2)ccc1O` (centres undefined) the IC50 was 810 nM and 790 nM.
